One data set deals with MDA-MB-231. The data set can be described thus: Viability assay (Cell Titer-Glo). In kind it is cell-based. Particulars: Homo sapiens, MDA-MB-231, 144 h; Table 2; six days; geometric mean; N ≥ 3; CEACAM5 Negative. Background: ATP-based viability assays read luminescence as a measure of living cells.
In another data set the test system is SNU-16. Kind of data set: Viability assay (Cell Titer-Glo). In kind it is cell-based, human.
The next data set concerns MDA-MB-468. The data set can be described thus: Viability assay (Cell Titer-Glo). In kind it is cell-based. Particulars: Homo sapiens, Table 2.
The next data set has as its system LS174T. The data set can be described thus: Viability assay (Cell Titer-Glo). Particulars: Homo sapiens. It counts as cell-based.
The next data set relates to SK-CO-1. The data set can be described thus: Viability assay (Cell Titer-Glo). In kind it is cell-based. As to conditions: Homo sapiens.
Another data set relates to MKN-45. The data set can be described thus: Viability assay (Cell Titer-Glo). It counts as cell-based. Particulars: Homo sapiens.
The conditions of data set [1]: background; cited from earlier work.
The subject of data set [2] is CEACAM5 from Macaca fascicularis. As to conditions: background; cited from earlier work.
In another data set the test system is MKN45 cells. The data set can be described thus: Internalization assay using Cell Discoverer (pHrodo labeled antibodies). In kind it is cell-based, human. The source says: A relevant characteristic of an ADC is its internalization into a target-expressing cell and lysosomes, and thus internalization is a relevant property of antibodies to be used as part of ADCs. Antibody internalization rate into the late endosome and lysosome (low pH vesicles) can be monitored by directly labeling the antibodies with a pH-sensitive dye (pHrodo) which emits strong fluorescence at a pH lower than 6.0 upon excitation. This fluorescence can be imaged in the Cell-Discoverer7 (Zeiss) and internalization rate can be calculated.
To analyze the internalization rates of several antibodies, MKN45 cells were seeded in a 96 well, dark, flat clear bottom plate (Cellvis) at 25,000 cells/well. Cells were cultivated over night with 100 μl/well of RMPI-1640+10% FBS (Thermo). Cell media was removed, and cells were stained with 100 μl of 10 μg/ml Hoechst dye diluted in PBS×1 for 15 min at room temperature (RT) in the dark. Cells were then washed twice with PBS×1. […]
Internalization of pHrodo labeled antibodies into the late endosomes and lysosomes of cells was imaged by Cell-Discoverer7 (Zeiss) using fluorescence at excitation of 567 nm and emission detector of 592/25 nm. […]
Fluorescence of each well was recorded every 20 min for 20 h. Analysis of Sum Fluorescence Intensity per cell (SFI) was calculated by the Zen Software (ZEN3.1) and Excel analysis of linear regression.

Where “and” joins values, the source holds several entries; their conditions need not be identical. Identical values can stand only once.

Sequence of CEACAM5 from Macaca fascicularis (as listed by the source): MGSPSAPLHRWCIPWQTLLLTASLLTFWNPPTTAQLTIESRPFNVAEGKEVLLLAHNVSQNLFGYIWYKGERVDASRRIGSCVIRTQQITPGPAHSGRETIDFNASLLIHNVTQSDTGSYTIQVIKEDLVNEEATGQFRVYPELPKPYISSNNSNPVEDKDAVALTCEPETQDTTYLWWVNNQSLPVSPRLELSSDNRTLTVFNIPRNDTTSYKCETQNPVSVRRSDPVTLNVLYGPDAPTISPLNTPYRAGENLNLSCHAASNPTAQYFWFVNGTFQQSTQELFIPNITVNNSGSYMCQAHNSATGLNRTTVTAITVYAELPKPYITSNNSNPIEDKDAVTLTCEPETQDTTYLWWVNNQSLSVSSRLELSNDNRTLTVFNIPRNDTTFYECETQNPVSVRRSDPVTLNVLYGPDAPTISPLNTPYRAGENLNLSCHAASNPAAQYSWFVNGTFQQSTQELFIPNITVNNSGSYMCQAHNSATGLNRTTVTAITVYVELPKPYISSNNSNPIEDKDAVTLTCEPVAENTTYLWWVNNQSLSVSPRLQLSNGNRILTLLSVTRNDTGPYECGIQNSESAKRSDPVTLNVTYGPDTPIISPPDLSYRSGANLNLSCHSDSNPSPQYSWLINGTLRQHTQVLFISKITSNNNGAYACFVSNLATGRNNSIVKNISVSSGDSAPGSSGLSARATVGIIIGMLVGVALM
Method for LS174T: (§1) Cytotoxicity effects of the ADC on the cancer cell lines were measured by cell viability assays. Cells were seeded in a volume of 90 μL in 96-well plates the day before treatment. Test compounds (ADCs or free payloads) were formulated at 10-fold the starting concentration in cell culture medium. Test compounds were serial diluted (1:4) and 10 μL of each dilution was added to the cells in triplicates. Plates were cultured at 37° C. in a CO2 incubator for six days. For cell viability measurement, Cell Titer-Glo® reagent (Promega™ Corp, Madison, WI) was added to each well, and plates processed according to the manufacturer's instructions. Luminescence signals were measured using a Varioskan plate reader (Thermo Fisher). Luminescence readings were converted to % viability relative to untreated cells. Data was fitted with non-linear regression analysis, using log (inhibitor) vs. response, variable slope, 4-parameter fit equation using GraphPad Prism. […] Geometric mean values of IC50s derived from multiple experiments were calculated.
(§2) Cytotoxicity effects of the ADC on the cancer cell lines were measured by cell viability assays. […] Luminescence signals were measured using a Varioskan plate reader (Thermo Fisher). Luminescence readings were converted to % viability relative to untreated cells. […] Geometric mean values of IC50s derived from multiple experiments were calculated.
Method for MDA-MB-231: as §1, §2
Method for MDA-MB-468: Cytotoxicity effects of the ADC on the cancer cell lines were measured by cell viability assays. Cells were seeded in a volume of 90 μL in 96-well plates the day before treatment. Test compounds (ADCs or free payloads) were formulated at 10-fold the starting concentration in cell culture medium. Test compounds were serial diluted (1:4) and 10 μL of each dilution was added to the cells in triplicates. Plates were cultured at 37° C. in a CO2 incubator for six days. For cell viability measurement, Cell Titer-Glo® reagent (Promega™ Corp, Madison, WI) was added to each well, and plates processed according to the manufacturer's instructions. Luminescence signals were measured using a Varioskan plate reader (Thermo Fisher). Luminescence readings were converted to % viability relative to untreated cells. Data was fitted with non-linear regression analysis, using log (inhibitor) vs. response, variable slope, 4-parameter fit equation using GraphPad Prism. Data is shown as % relative cell viability vs. molar compound concentration, error bars indicating standard deviation (SD) of triplicates. Geometric mean values of IC50s derived from multiple experiments were calculated.
Method for MKN-45: as §1, §2
Method for SK-CO-1: as §1, §2
Method for SNU-16: as §1, §2

The term IC50 denotes the concentration at which inhibition is half-maximal. A lower IC50 goes with greater potency. In the case of `CC[C@@]1(O)C(=O)OCc2c1cc1n(c2=O)Cc2c-1nc1cc(F)c(C)c3c1c2[C@@H](N)CC3` [PAYLOAD, (1S,9S)-1-Amino-9-ethyl-5-fluoro-1,2,3,9,12,15-hexahydro-9-hydroxy-4-methyl-10H,13H-benzo(de)pyrano(3′,4′:6,7)indolizino(1,2-b)quinoline-10,13-dione, reference compound], the IC50 in the data set on MDA-MB-231 was found to be 0.93 nM; with SNU-16 (Homo sapiens, SNU-16, 144 h, Table 2, six days, geometric mean, N ≥ 3, CEACAM5 Positive), 0.44 nM; with MDA-MB-468 (MDA-MB-468, 144 h, six days, geometric mean, N ≥ 2, CEACAM5 Negative), 0.21 nM; in the data set with LS174T (144 h, Table 2, six days, geometric mean, N ≥ 3, CEACAM5 Positive), 0.53 nM; in the data set with SK-CO-1 (SK-CO-1, 144 h, Table 2, six days, geometric mean, N ≥ 4, CEACAM5 Positive), 0.25 nM; in the data set with MKN-45 (MKN-45, 144 h, Table 2, six days, geometric mean, N ≥ 3, CEACAM5 Positive), 0.89 nM. Also, the “SNU-16 maximal effect compared to untreated controls” value in the data set on SNU-16 (Table 3, at the highest tested compound concentration) is on record as “(−99%)”. Further, the Emax with MDA-MB-468 (MDA-MB-468, at the highest tested compound concentration, read-out: MDA-MB-468 maximal effect compared to untreated controls) was -99%; in the data set with LS174T (Table 2, at the highest tested compound concentration, read-out: LS174T maximal effect compared to untreated controls), -88%; with SK-CO-1 (SK-CO-1, Table 2, at the highest tested compound concentration, read-out: SK-CO-1 maximal effect compared to untreated controls), -99%; in the data set on MKN-45 (MKN-45, Table 2, at the highest tested compound concentration, read-out: MKN-45 maximal effect compared to untreated controls), -96%.

Consider Labetuzumab govitecan, for which the “stability of the linker structure after parenteral application” value in data set [1] is “significant instability of the linker structure”.

Take “hmn-14: known anti-CEACAM5 antibody as in labetuzumab govitecan; HC SEQ ID NO: 27, LC SEQ ID NO: 28 [reference compound]”: the “cross-reactivity with CEACAM5 from Macaca fascicularis” value in data set [2] is recorded as “not cross-reacting with CEACAM5 from Macaca fascicularis”. Moreover, the average binding rate in the data set on MKN45 cells (average of the three slopes of the linear part of the curve) is on record as 22268±3060. For the same molecule, the “Slope of Curve” value in the data set on MKN45 cells (linear part (700 to 1200 minutes) of fluorescence intensity per cell, 100 nM pHrodo labeled antibody, single wells) is 23701 and 24350 and 18754.

Source of the values: US20250179210A1, “ANTI-CEACAM5 ANTIBODIES AND CONJUGATES AND USES THEREOF” (Merck Patent GmbH, priority 2022, published 2025).
